Measured values from patent US20040063662A1, “Selenophene anti-tumor agents” (priority 1996, published 2004).

What was measured:
NCI-H460 = test: NCI human tumor cell panel: NCI-H460 (Non-Small Cell Lung Cancer); type: cell-based; settings: NCI-H460, Non-Small Cell Lung Cancer
MCF7/ADR-RES = test: NCI human tumor cell panel: MCF7/ADR-RES (Breast Cancer); type: cell-based; settings: Breast Cancer
HOP-92 = test: NCI human tumor cell panel: HOP-92 (Non-Small Cell Lung Cancer)
BT-549 = test: NCI human tumor cell panel: BT-549 (Breast Cancer); type: cell-based; settings: BT-549, Breast Cancer
NCI-H522 = test: NCI human tumor cell panel: NCI-H522 (Non-Small Cell Lung Cancer)
RPMI-8226 = test: NCI human tumor cell panel: RPMI-8226 (Leukemia); type: cell-based; settings: RPMI-8226, Leukemia
OVCAR-3 = test: NCI human tumor cell panel: OVCAR-3 (Ovarian Cancer); type: cell-based; settings: OVCAR-3, Ovarian Cancer
SNB-19 = test: NCI human tumor cell panel: SNB-19 (CNS Cancer); type: cell-based; settings: SNB-19, CNS Cancer
LOX IMVI = test: NCI human tumor cell panel: LOX IMVI (Melanoma); type: cell-based; settings: Melanoma
TK-10 = test: NCI human tumor cell panel: TK-10 (Renal Cancer); type: cell-based; settings: TK-10, Renal Cancer
EKVX = test: NCI human tumor cell panel: EKVX (Non-Small Cell Lung Cancer); type: cell-based; settings: Non-Small Cell Lung Cancer, read-out: Log10 GI50 (converted)
UO-31 = test: NCI human tumor cell panel: UO-31 (Renal Cancer); type: cell-based; settings: UO-31, Renal Cancer
OVCAR-8 = test: NCI human tumor cell panel: OVCAR-8 (Ovarian Cancer); type: cell-based; settings: OVCAR-8, Ovarian Cancer
KM12 = test: NCI human tumor cell panel: KM12 (Colon Cancer); type: cell-based; settings: KM12, Colon Cancer
A549/ATCC = test: NCI human tumor cell panel: A549/ATCC (Non-Small Cell Lung Cancer); type: cell-based; settings: Non-Small Cell Lung Cancer
MDA-MB-435 = test: NCI human tumor cell panel: MDA-MB-435 (Breast Cancer); type: cell-based; settings: MDA-MB-435, Breast Cancer
K-562 = test: NCI human tumor cell panel: K-562 (Leukemia); type: cell-based; settings: K562, K-562, Leukemia
SF-295 = test: NCI human tumor cell panel: SF-295 (CNS Cancer); type: cell-based; settings: SF-295, CNS Cancer
SF-539 = test: NCI human tumor cell panel: SF-539 (CNS Cancer); type: cell-based; settings: SF-539, CNS Cancer
HS 578T = test: NCI human tumor cell panel: HS 578T (Breast Cancer); type: cell-based; settings: Breast Cancer
UACC-257 = test: NCI human tumor cell panel: UACC-257 (Melanoma); type: cell-based; settings: UACC-257, Melanoma
786-0 = test: NCI human tumor cell panel: 786-0 (Renal Cancer); type: cell-based; settings: 786-0, Renal Cancer
SK-MEL-28 = test: NCI human tumor cell panel: SK-MEL-28 (Melanoma); type: cell-based; settings: SK-MEL-28, Melanoma
PC-3 = test: NCI human tumor cell panel: PC-3 (Prostate Cancer); type: cell-based; settings: PC-3, Prostate Cancer
NCI-H322M = test: cells; type: cell-based; settings: Homo sapiens, Non-Small Cell Lung Cancer
OVCAR-5 = test: NCI human tumor cell panel: OVCAR-5 (Ovarian Cancer); type: cell-based; settings: OVCAR-5, Ovarian Cancer
SR = test: NCI human tumor cell panel: SR (Leukemia); type: cell-based; settings: Leukemia
IGROV1 = test: NCI human tumor cell panel: IGROV1 (Ovarian Cancer); type: cell-based; settings: IGROV-1, IGROV1, Ovarian Cancer
MALME-3M = test: NCI human tumor cell panel: MALME-3M (Melanoma); type: cell-based; settings: MALME-3M, Melanoma
ACHN = test: NCI human tumor cell panel: ACHN (Renal Cancer); type: cell-based; settings: Renal Cancer
[1] = read-out: Log10 GI50 (converted)
[2] = read-out: Log10 TGI (converted)

O=Cc1ccc(-c2ccc(-c3ccc(C=O)[se]3)s2)[se]1 [NSC 676630]
0.676 µM: IC (TGI) (UACC-257; [2])
> 100 µM: IC (TGI) (NCI-H460; [2]) | IC (TGI) (MCF7/ADR-RES; [2]) | GI50 (HOP-92; HOP-92, read-out: Log10 GI50 (converted)) | IC (TGI) (HOP-92; HOP-92, read-out: Log10 TGI) | IC (TGI) (BT-549; [2]) | GI50 (RPMI-8226; [1]) | IC (TGI) (RPMI-8226; read-out: Log10 TGI) | IC (TGI) (OVCAR-3; [2]) | GI50 (SNB-19; [1]) | IC (TGI) (SNB-19; [2]) | GI50 (LOX IMVI; [1]) | IC (TGI) (LOX IMVI; [2]) | GI50 (EKVX) | GI50 (UO-31; [1]) | IC (TGI) (UO-31; [2]) | IC (TGI) (OVCAR-8; [2]) | GI50 (KM12; [1]) | IC (TGI) (KM12; [2]) | IC (TGI) (A549/ATCC; [2]) | GI50 (MDA-MB-435; [1]) | IC (TGI) (MDA-MB-435; [2]) | IC (TGI) (K-562; [2]) | GI50 (SF-295; [1]) | IC (TGI) (SF-295; [2]) | GI50 (SF-539; [1]) | IC (TGI) (SF-539; [2]) | GI50 (HS 578T; [1]) | IC (TGI) (HS 578T; [2]) | GI50 (786-0; [1]) | IC (TGI) (786-0; [2]) | GI50 (SK-MEL-28; [1]) | IC (TGI) (SK-MEL-28; [2]) | GI50 (PC-3; [1]) | IC (TGI) (PC-3; [2]) | GI50 (NCI-H322M; [1]) | IC (TGI) (NCI-H322M; [2]) | GI50 (SR; [1]) | IC (TGI) (SR; [2]) | IC (TGI) (IGROV1; [2]) | GI50 (MALME-3M; [1]) | IC (TGI) (MALME-3M; [2]) | GI50 (ACHN; [1]) | IC (TGI) (ACHN; [2])
1.62 µM: IC (TGI) (TK-10; [2])
0.38 µM: GI50 (TK-10; [1])
0.275 µM: GI50 (UACC-257; [1])
79.4 µM: GI50 (MCF7/ADR-RES; [1])
1.48 µM: GI50 (IGROV1; [1])
53.7 µM: IC (TGI) (NCI-H522; NCI-H522, read-out: Log10 TGI)
20.9 µM: GI50 (NCI-H522; NCI-H522, read-out: Log10 GI50 (converted))
0.129 µM: GI50 (NCI-H460; [1])
0.724 µM: GI50 (OVCAR-3; [1])
0.132 µM: GI50 (OVCAR-5; [1])
3.39 µM: GI50 (K-562; [1])
63.1 µM: GI50 (BT-549; [1])
33.1 µM: GI50 (OVCAR-8; [1])
87.1 µM: GI50 (A549/ATCC; [1])
0.447 µM: IC (TGI) (OVCAR-5; [2])
